From PubChem BioAssay AID1918946 (Molecular Pharmacology Branch, DTP, NCI, 2023)

System: 885512-296-R-J2-PDC complex spheroid viability
Test: Anticancer human tumor 885512-296-R-J2-PDC patient-derived breast carcinoma cell line growth inhibition
Conditions: for IC50: curve of first compound; for viability, T/C: stronger effect = lower value
Procedure, shortened: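 Drug combinations with the LSD1 inhibitor iadademstat tested on tumor cells co-cultured as spheroids with endothelial cells and mesenchymal stem cells. Concentrations descended in half-log increments from clinical Cmax or 10 microM.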

[1] = second compound 0.1 µM, first compound 0.0316 µM
[2] = second compound 0.1 µM, first compound 0.1 µM
[3] = second compound 0.1 µM, first compound 0.316 µM
[4] = second compound 0.1 µM, first compound 1 µM
[5] = second compound 0.1 µM, first compound 3.16 µM
[6] = second compound 0.1 µM, first compound 10 µM
[7] = second compound 0.316 µM, first compound 0.0316 µM
[8] = second compound 0.316 µM, first compound 0.1 µM
[9] = second compound 0.316 µM, first compound 0.316 µM
[10] = second compound 0.316 µM, first compound 1 µM
[11] = second compound 0.316 µM, first compound 3.16 µM
[12] = second compound 0.316 µM, first compound 10 µM
[13] = second compound 1 µM, first compound 0.0316 µM
[14] = second compound 1 µM, first compound 0.1 µM
[15] = second compound 1 µM, first compound 0.316 µM
[16] = second compound 1 µM, first compound 1 µM
[17] = second compound 1 µM, first compound 3.16 µM
[18] = second compound 1 µM, first compound 10 µM
[19] = second compound 3.16 µM, first compound 0.0316 µM
[20] = second compound 3.16 µM, first compound 0.1 µM
[21] = second compound 3.16 µM, first compound 0.316 µM
[22] = second compound 3.16 µM, first compound 1 µM
[23] = second compound 3.16 µM, first compound 3.16 µM
[24] = second compound 3.16 µM, first compound 10 µM
[25] = second compound 10 µM, first compound 0.0316 µM
[26] = second compound 10 µM, first compound 0.1 µM
[27] = second compound 10 µM, first compound 0.316 µM
[28] = second compound 10 µM, first compound 1 µM
[29] = second compound 10 µM, first compound 3.16 µM
[30] = second compound 10 µM, first compound 10 µM
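Note: spheroids exposed to agents for 7 days before viability read.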

SMILES | IC50 (second compound 0.1 µM) | IC50 (second compound 0.316 µM) | IC50 (second compound 1 µM) | IC50 (second compound 3.16 µM) | IC50 (second compound 10 µM) | viability, T/C [1] | viability, T/C [2] | viability, T/C [3] | viability, T/C [4] | viability, T/C [7] | viability, T/C [8] | viability, T/C [9] | viability, T/C [10] | viability, T/C [13] | viability, T/C [14] | viability, T/C [15] | viability, T/C [16] | viability, T/C [19] | viability, T/C [20] | viability, T/C [21] | further results
CC(C)c1c(-c2ccccc2)nc2c(C#N)c[nH]n2c1=O + NC1CCC(NC2CC2c2ccccc2)CC1 | > 10 µM | > 10 µM | > 10 µM | > 10 µM | > 10 µM | 121% | 123% | 137% | 128% | 133% | 126% | 137% | 131% | 135% | 114% | 129% | 123% | 111% | 122% | 120% | viability, T/C [5]: 116%; viability, T/C [6]: 119%; viability, T/C [11]: 118%; viability, T/C [12]: 113%; viability, T/C [17]: 148%; viability, T/C [18]: 110%; viability, T/C [22]: 145%; viability, T/C [23]: 115%; viability, T/C [24]: 118%; viability, T/C [25]: 99.3%; viability, T/C [26]: 85.5%; viability, T/C [27]: 97.2%; viability, T/C [28]: 109%; viability, T/C [29]: 104%; viability, T/C [30]: 114%
CC1COCCN1c1cc(-c2ccnn2C)c2ccnc(-c3ccn[nH]3)c2n1 (stereo not given) + NC1CCC(NC2CC2c2ccccc2)CC1 | < 0.00316 µM | < 0.00316 µM | < 0.00316 µM | < 0.00316 µM | < 0.00316 µM | 9.16% | 5.02% | 7.43% | 11.5% | 4.73% | 4.6% | 6.77% | 5.15% | 5.72% | 5.22% | 4.61% | 8.49% | 3.3% | 6.46% | 4.63% | viability, T/C (second compound 0.1 µM, first compound 0.00316 µM): 42%; viability, T/C (second compound 0.1 µM, first compound 0.01 µM): 8.7%; viability, T/C (second compound 0.316 µM, first compound 0.00316 µM): 42%; viability, T/C (second compound 0.316 µM, first compound 0.01 µM): 10.9%; viability, T/C (second compound 1 µM, first compound 0.00316 µM): 38.8%; viability, T/C (second compound 1 µM, first compound 0.01 µM): 10.6%; viability, T/C (second compound 3.16 µM, first compound 0.00316 µM): 38.8%; viability, T/C (second compound 3.16 µM, first compound 0.01 µM): 7.56%; viability, T/C [22]: 4.98%; viability, T/C (second compound 10 µM, first compound 0.00316 µM): 23.8%; viability, T/C (second compound 10 µM, first compound 0.01 µM): 5.72%; viability, T/C [25]: 3.24%; viability, T/C [26]: 2.51%; viability, T/C [27]: 2.18%; viability, T/C [28]: 2.8%
COc1ccc([C@@H](O)c2cc(-c3ncnc4cc(N5CCOCC5)ccc34)c(F)cc2Cl)nn1 + NC1CCC(NC2CC2c2ccccc2)CC1 | 3.53 µM | 3 µM | 2.66 µM | 3.23 µM | 2.19 µM | 114% | 104% | 90.3% | 91.8% | 128% | 119% | 101% | 85.2% | 142% | 102% | 102% | 89.8% | 117% | 109% | 105% | viability, T/C [5]: 50.1%; viability, T/C [6]: 12.1%; viability, T/C [11]: 46.3%; viability, T/C [12]: 11.4%; viability, T/C [17]: 36.6%; viability, T/C [18]: 9.41%; viability, T/C [22]: 92.8%; viability, T/C [23]: 49.7%; viability, T/C [24]: 10.4%; viability, T/C [25]: 130%; viability, T/C [26]: 94.9%; viability, T/C [27]: 87.2%; viability, T/C [28]: 84.3%; viability, T/C [29]: 35%; viability, T/C [30]: 5.65%
